In ChEMBL document CHEMBL1130615, “Synthesis, DNA-damaging and cytotoxic properties of novel topoisomerase II-directed bisantrene analogues” (Bioorg Med Chem Lett, 1998) one finds Uncut DNA and IC50 data, which are given here for six compounds.

Test [1] has as its target T1, DNA topoisomerase II (Homo sapiens) (UniProt P11388+Q02880). The test is described as follows: Percent of DNA remaining uncut after incubation with Topoisomerase II at 0.1 uM concentration. The class given is protein assay.
Test [2] concerns HL-60. The test is described as follows: Cell cytotoxicity was determined against human promyelocytic leukemia (HL60) cell line. The class given is functional, cell-based.
Test [3] relates to A2780. The test is described as follows: Cell cytotoxicity was determined against human ovarian cancer (A2780) cell line. The class given is functional, cell-based.
The target in test [4] is T1, DNA topoisomerase II (Homo sapiens). The test is described as follows: Percent of DNA remaining uncut after incubation with Topoisomerase II at 10 uM concentration. It counts as protein assay.
Test [5] shares this target. The test is described as follows: Percent of DNA remaining uncut after incubation with Topoisomerase II at 1 uM concentration. It counts as protein assay.

As usually defined, the IC50 is the midpoint of a concentration-inhibition curve. For the compound `C(=N\NC1=NCCN1)/c1c2ccccc2nc2ccccc12`, the Uncut DNA in test [1] was found to be 51%; in test [4], 25%; in test [5], 38%. Further, the figures for the IC50 in test [2] and in test [3] were 48.1 µM and 28.1 µM, respectively.

Turning to `C(=N\NC1=NCCN1)/c1ccc(/C=N/NC2=NCCN2)c2cc3ccccc3cc12`, the Uncut DNA in test [1] came out at 54%; in test [4] it was 95%; in test [5], 103%. Further, the 50% inhibitory concentration (IC50) in test [2] is 11.2 µM; in test [3], 4.8 µM.

Regarding `COc1cc(NS(C)(=O)=O)ccc1Nc1c2ccccc2nc2ccccc12` [AMSACRINE], the Uncut DNA was 12% in test [1], 1% in test [4] and 4% in test [5]. The results for the IC50 in test [2] and in test [3] were 0.4 µM and 0.35 µM, respectively.

As to `C(=N\NC1=NCCN1)/c1cccc2cc3ccccc3cc12`, the Uncut DNA was 56% in test [1], 20% in test [4] and 48% in test [5]. The figures for the IC50 in test [2] and in test [3] were 23 µM and 18.6 µM, respectively.

Take `C(=N\NC1=NCCN1)/c1c2ccccc2c(/C=N/NC2=NCCN2)c2ccccc12` [BISANTRENE]: the Uncut DNA in test [1] was found to be 14%; in test [4], 57%; in test [5], 46%. The IC50 in test [2] worked out at 0.3 µM; in test [3], 0.34 µM.

Take `C(=N\NC1=NCCN1)/c1c2ccccc2cc2ccccc12`: the Uncut DNA came to 41% in test [1], 11% in test [4] and 30% in test [5]. For the same compound, the concentration for half-maximal inhibition (IC50) in test [2] worked out at 73.5 µM; in test [3] it was 37.8 µM.
